From US6429286B1, “Immunoregulatory molecules for costimulatory signal transduction” (priority 1997, dated 2002)
No end group written: not given here.

T1: mouse CD80-Ig (Mus musculus, UniProt Q00609)
T1 construct: Ig (immunoglobulin fusion partner); made in house; host or cells: COS7 cells (pCDM8 plasmid), purified on Protein A Sepharose
T1 sequence (Q00609 38-246 limits assumed): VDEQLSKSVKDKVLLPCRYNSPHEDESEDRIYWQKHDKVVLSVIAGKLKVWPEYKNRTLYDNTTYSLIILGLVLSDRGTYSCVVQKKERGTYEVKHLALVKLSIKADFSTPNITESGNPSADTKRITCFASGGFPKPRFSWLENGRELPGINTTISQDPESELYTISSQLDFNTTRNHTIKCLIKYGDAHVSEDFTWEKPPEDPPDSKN

T2: human CD80-Ig (Homo sapiens, UniProt P33681)
T2 construct: a fused gene of human CD80 extracellular domain and human Ig Cγl domain; made in house; host or cells: COS7 cells (pCDM8 plasmid, DEAE-dextran), purified on Protein A Sepharose
T2 sequence (P33681 35-242 limits assumed): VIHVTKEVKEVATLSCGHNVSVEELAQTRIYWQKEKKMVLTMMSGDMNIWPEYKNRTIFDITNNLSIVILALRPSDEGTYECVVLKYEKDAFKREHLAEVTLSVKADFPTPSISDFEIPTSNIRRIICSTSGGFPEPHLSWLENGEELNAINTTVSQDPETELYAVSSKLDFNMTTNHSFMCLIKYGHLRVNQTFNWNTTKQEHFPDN

B1: phage expressing F2 sequence (peptide)
chain: ADGAGFVCSGIFAVGVGRCGAAGAETVESCLAKPHTENSFTNVWKDDKTLDRYANYEGCLWNATGVVVCTGDETQCYGTWVPIGLAIPENEGGGSEGGGSEGGGSEGGGTKPPEYGDTPIPGYTYINPLDGTYPPGTEQNPANPNPSLEESQPLNTFMFQNNRFRNRQGALTVYTGTVTQGTDPVKTYYQYTPVSSKAMYDAYWNGKFRDCAFHSGFNEDPFVCEYQGQSSDLPQPPVNAGGGSGGGSGGGSEGGGSEGGGSEGGGSEGGGSGGGSGSGDFDYEKMANANKGAMTENADENALQSDAKGKLDSVATDYGAAIDGFIGDVSGLANGNGATGDFAGSNSQMAQVGDGDNSPLMNNFRQYLPSLPQSVECRPYVFGAGKPYEFSIDCDKINLFRGVFAFLLYVATFMYVFSTFANILRNKES
notes: also called F2 phage

Key:
[1] = tested on: anti-mouse CTLA-4 monoclonal antibody; assay: ELISA: reactivity of plate-coated phage clones with the anti-mouse CTLA-4 monoclonal antibody; type: binding, hamster; conditions: phage 4x10^9 virions/well, antibody 200 ng/ml, FIG. 2 and 3
Procedure: The obtained 58 phage clones were subjected to primary screening with ELISA. A 96 well ELISA plate (Sumitomo Bakelite, Tokyo) was coated with each phage (4×10^9 virions/well/40 μl) purified as described by Smith et al. (G. P. Smith, Method in Enzymology, Vol. 217, p.228-257 (1993), Academic Press) at 4° C. overnight. The plate was washed with TBST and was blocked with 100 μl/well of 50 mM Tris-HCl, pH 7.5, 150 mM NaCl supplemented with 0.02% NaN3 and 1% BSA at room temperature for 2 hours. After washing with TBST, the plate was added with the anti-mouse CTLA-4 monoclonal antibody (200 ng/ml/well/100 μl) and reacted at room temperature for 1 hour. After washing with TBST; the plate was reacted with anti-hamster IgG antibody (Zymet, California) labeled with alkaline phosphatase diluted to 250-fold with TBS at room temperature for 1 hour. After washing, the plate was added with the substrate sodium p-nitrophenylphosphate hexahydrate (Wako Junyaku, Osaka) was added and absorbance at 405 nm was measured.
Whether each of the motifs as shown in Example 4 specifically binds to the anti-mouse CTLA-4 monoclonal antibody was investigated. A degree of specificity was determined by ELISA as described in Example 3. As a negative control, anti-mouse CD28 antibody (Phamingen, San Diego), having the same isotype with the anti-mouse CTLA-4 monoclonal antibody, and hamster IgG were used. Anti-hamster IgG antibody was used as a detection antibody. […] E. coli producing the phage expressing F2 sequence and the phage expressing F6 sequence have been deposited by the applicant in accordance with the Budapest Treaty as Escherichia coli F2 [FERM BP-6009] and as Escherichia coli F6 [FERM BP-60103], respectively, at National Institute of Bioscience and Human-Technology Agency of Industrial Science and Technology, 1-3, Higashi 1-chome, Tsukuba-shi, Ibaraki-ken, 305, Japan, on Apr. 14, 1997 (original deposition date: transferred from FERM P-16192 and FERM P-16193, respectively, to the deposition under the Budapest Treaty on Jul. 4, 1997).

mouse CD80-Ig = target: T1, mouse CD80-Ig; assay: ELISA: binding of plate-coated phages to mouse CD80-Ig; conditions: for binding to mouse CD80-Ig: ELISA, 200 to 1000 ng/35 μl mouse CD80-Ig, FIG. 5
Procedure: (§1) The binding activity was measured by ELISA. A 96-well ELISA plate (Sumitomo Bakelite, Tokyo) was coated with phages expressing F2 or F6 sequence (4×10^9 virions/well/40 pi) at 4° C. overnight and then blocked with 50 mM Tris-HCl, pH 7.5, 150 mM NaCl (TBS) supplemented with 1% BSA at room temperature for 2 hours. After washing the plate with TBST, the plate was added with 200 to 1000 ng/35 μl of mouse CD80-Ig diluted with PBS and reacted at room temperature for 1 hour. After washing with TBST, the plate was reacted with alkali phosphatase-labeled anti-human IgG antibody (Zymet, California) diluted with TBS by 100-fold at room temperature for 1 hour. After washing, to the plate was added the substrate sodium p-nitrophenylphosphate hexahydrate and absorbance at 405 nm was measured.

T cells (spleen cells) [2] = assay: T cell growth stimulating activity in spleen cells of mice immunized with egg lysozyme; type: cell-based, BALB/c mice; conditions: egg lysozyme 3 μg/ml plus phage 1 μg/ml added separately, W. T. phage as negative control, FIG. 8
Excerpt: In Example 6, there were used a phage protein as a primary antigen stimulation and the phage protein with expressed F2 or F6 sequence as a secondary stimulation in vitro. That is, in Example 6, a phage protein was used as an antigen and a secondary stimulation was made in a condition where both said antigen and F2 or F6 sequence are on the same particle. In this Example, however, the activity to stimulate the growth of T cells of phages expressing F2 or F6 as described in Example 6 was investigated wherein an antigen irrelevant to the phage (egg lysozyme) was used as a primary antigen stimulation and the egg lysozyme plus the phage particles expressing F2 or F6 sequence were separately added as a secondary stimulation.
Egg lysozyme 10 μg (100 μl/Freund's incomplete adjuvant (FIA)) was subcutaneously injected to BALB/c mice. Four weeks after administration, spleen cells and the relevant lymph nodes were removed from each mouse in a usual manner. Each well of 96-well culture plate was added with the spleen cells at 1.5×10^5 cells/well and with egg lysozyme at 3 μg/ml. Phages expressing F2 or F6 sequence were added at 1 μg/ml either at the same time, 1 day after, or 2 days after, the addition of egg lysozyme. As a negative control, W. T. phage was added. Measurement after culture was as described in Example 6.

T cells (spleen cells) [3] = assay: Effect of CD80-Ig or CD86-Ig on the T cell growth stimulating activity of the phages; type: cell-based, BALB/c mice; conditions: phage 1 μg/ml, egg lysozyme 3 μg/ml; for effect of CD80-Ig on T cell growth stimulating activity: CD80-Ig 0-1 μg/ml, FIG. 9 and 10
Procedure: Each phage expressing F2 or F6 sequence reacted with anti-mouse CTLA-4 monoclonal antibody as shown in Example 5. Phage expressing F2 specifically bound to mouse CD80-Ig as shown in Example 7.
Egg lysozyme 50 μg (100 μl/PBS) was intraperitoneally administered to BALB/c mice. Four weeks after administration, spleen cells were removed from each mouse in a usual manner. In this Example, to each well of a 96-well culture plate were added the spleen cells at 1.5×10^5 cells/well and egg lysozyme at 3 μg/ml together with phage expressing F2 or F6 (1 μg/ml) and CD80-Ig or CD86-Ig or human Ig as a negative control at 0-1 μg/ml. The T cell growth stimulating activity was determined as described in Example 6.

[4] = tested on: anti-HBsAg antibody production; assay: Anti-HBsAg antibody production in mice immunized with yHBsAg together with phages; type: in vivo, BALB/c mice; conditions: i.p. yHBsAg 10 μg with phage, boost at 15 days, blood three weeks after immunization, FIG. 11
Procedure: BALB/c mice (four animals per group) were administered intraperitoneally with either 10 μg (100 μl/PBS) of recombinant HBsAg produced in yeast (yHBsAg; Juridical Foundation The Chemo-Sero-Therapeutic Research Institute) alone or in combination with phages expressing F2 or F6 (10: pg/100 μl). Fifteen days after primary immunization, th-e same samples were administered intraperitoneally., Three weeks after primary immunization, each mouse was bled. Serum was diluted with PBS-to 50-fold, 200-fold and 800-fold and then anti-HBsAg antibody titer was measured with Ausab EIA kit (Abbott Laboratories).
The antibody titer was measured using a positive control attached to the kit as a standard.

human CD80-Ig = target: T2, human CD80-Ig; assay: ELISA: binding of phage expressing F2 sequence to human CD80-Ig; conditions: mouse CTLA-4-Ig and human IgG as negative control, FIG. 7
Procedure: as §1
Then, whether phage expressing F2 sequence specifically binds to human CD80-Ig was investigated in this Example as described in Example 7, FIG. 5.
Human CD80-Ig was prepared by constructing a fused gene of human CD80 extracellular domain and human Ig Cγl domain as described by Linsley et al. (J. Exp. Med. Vol. 173, p.721-730 (1991)). An expression plasmid pCDM8 incorporating the fused gene fragment was introduced into COS7 cells by DEAE-dextran method. After culturing for 72 hours, human CD80-Ig was purified from culture supernatant with Protein A Sepharose (Pharmacia). […]

T cells (spleen cells) [5] = assay: T cell growth, [3H]-thymidine take-up by spleen cells of mice primed with W. T. phage; type: cell-based, BALB/c mice; conditions: phage 0.015 to 5 μg/ml, three days culture, FIG. 4
Procedure: BALB/c mice (6 weeks old; four animals per group) were used in an experiment and the phages were purified as described by Smith et al. (G. P. Smith, Method in Enzymology, Vol. 217, p.228-257 (1993), Academic Press). An amount of the phages was measured using protein assay kit (BioRad) with bovine serum albumin as a standard and expressed as a protein concentration.
First, for antigen, stimulation, BALB/c mice were administered intraperitoneally with 10 μg (200 μl/PBS) of phage (W. T.) not expressing pIII protein. Four weeks after the administration, spleen cells were removed from each mouse in the usual manner. The spleen cells were added to each well of 96-well culture plate at 1.5×10^5 cells/well. To each well was added purified W. T. or phages expressing any of F1 to F6 sequence at a final concentration of 0.015 to 5 μg/ml to make a total volume of 200 μl (RPMS 1640 medium containing 10% FCS) Triplicates were used for each sample. After incubating these samples on ice for 30 minutes, the cells were cultured under condition of 5% CO2 at 37° C. for three days. Eighteen hours before completion of culture, the cells were pulse-labeled with [^3H]-thymidine (0.5 μCi/well). The cells were harvested with a cell harvester and a take-up of [^3H]-thymidine was measured with a liquid scintillation counter.

mouse CTLA-4-Ig = target: T3, mouse CTLA-4-Ig (mouse, UniProt P09793 36-161); assay: ELISA, F2 phage coated, reacted with mouse CD80-Ig, mouse CTLA-4-Ig and human IgG
T3 construct: also called CTLA-4-Ig chimeric molecule; not shown: Ig part of the chimera; not described for this construct

Row | Molecule | reactivity with anti-mouse CTLA-4 monoclonal antibody [1] | binding to mouse CD80-Ig (mouse CD80-Ig) | T cell growth stimulating activity, egg lysozyme as antigen (T cells (spleen cells) [2]) | effect of CD80-Ig on T cell growth stimulating activity (T cells (spleen cells) [3]) | anti-HBsAg antibody titer relative to group immunized with HBsAg alone (= 1) [4] | growth of T cells as compared to W. T. phage (T cells (spleen cells) [5]) | further results
1 | APGVRLGCAVLGRYC (cysteine pairing not given here) [F6] | reacted most strongly | do not bind to CD80/CD86 molecules | exhibited the antigen-specific activity to stimulate the growth of T cells | did not inhibit | 11.9 |  | effect of CD86-Ig on T cell growth stimulating activity (T cells (spleen cells) [3]; CD86-Ig 0-1 μg/ml, FIG. 10): did not inhibit
2 | GFVCSGIFAVGVGRC (cysteine pairing not given here) [F2] | reacted most strongly | bound to mouse CD80-Ig in a concentration-dependent manner | exhibited the antigen-specific activity to stimulate the growth of T cells | greatly inhibited | 17.9 |  | binding specificity to mouse CD80-Ig (mouse CD80-Ig; ELISA against mouse CD80-Ig, mouse CTLA-4-Ig and human IgG, FIG. 6): specifically reacted with mouse CD80-Ig; binding to human CD80-Ig (human CD80-Ig): specifically bound to human CD80-Ig
3 | GLHSRCHIGRDCSSA (cysteine pairing not given here) [F1] | reacted weakly |  |  |  |  | approximately equivalent to that with W. T. phage | 
4 | HYGDCRYDLGSCRGA (cysteine pairing not given here) [F4] | reacted weakly |  |  |  |  | approximately equivalent to that with W. T. phage | 
5 | SCVFHHSGRYWGRCV (cysteine pairing not given here) [F3] | reacted more weakly |  |  |  |  | approximately equivalent to that with W. T. phage | 
6 | B1 |  |  |  |  |  |  | binding result (mouse CTLA-4-Ig): no binding
